Read-outs that look alike come from different tables or passages of the source. Values belong to the molecule of their own block, whether it stands above or below them. Non-standard residues stand in square brackets, D forms with d. Residues, ends and D or L forms follow the SMILES beside them. No end group written: not given here. Phe(4-SO3H) = N[C@@H](Cc1ccc(S(=O)(=O)O)cc1)C(=O)O; Phe(4-I) = N[C@@H](Cc1ccc(I)cc1)C(=O)O; Phe(ol) = N[C@H](CO)Cc1ccccc1
Experiments:
XIAP-BIR3 [1] = target: T1, XIAP-BIR3 (Homo sapiens, UniProt P98170); assay: fluorescence polarization competition assay, XIAP-BIR3; type: binding
T1 construct: X-IAP BIR3 (amino acids residues 241-356); made in house; host or cells: Escherichia coli BL21 (DE3)
T1 sequence (P98170 241-356): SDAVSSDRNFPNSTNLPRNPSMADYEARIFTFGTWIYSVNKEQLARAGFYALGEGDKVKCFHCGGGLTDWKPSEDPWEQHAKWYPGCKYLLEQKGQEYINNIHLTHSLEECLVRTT
Method: (§1) The apparent Kd values can be determined from the EC50 values.
(§2) The vectors pET15b-XIAPBIR2C202AC218G, pET15b-XIAPBIR3, and pET15b-MLIAPBIR were introduced into Escherichia coli strain BL21 (DE3). Overnight cultures were diluted 1:100 and grown at 30° C. in LB media with […] to an A600 of 0.5-0.7 with vigorous shaking. Isopropyl b-D-thiogalactoside (IPTG) was added to a final concentration of 1 mM and cultures were grown for 4 hours at 30° C. One litre of frozen cell pellet was resuspended in 100 ml Buffer A (50 mM Tris [pH 8.0], 300 mM NaCl, 5 mM b-mercaptoethanol, 0.5 mM PMSF, 2 mM benzamidine) with 5 mM imidazole and placed on ice for 30 minutes. Cells were lysed by homogenizing followed by repeated passes through a microfluidizer. Lysate was cleared by centrifugation at 15,000 rpm for 30 minutes. The supernatant was loaded onto a Ni-agarose column (Qiagen), washed with 10 column volumes Buffer A with 10 mM imidazole, and eluted with 10 column volumes Buffer A with 300 mM imidazole. Fractions containing BIR protein were pooled. Final concentrations of 5 mM DTT and 100 mM zinc acetate were added. The pool was concentrated and loaded on a Superdex 75™ (Pharmacia) sizing column. Protein eluted over one column volume into 50 mM Tris 8.0, 300 mM NaCl, 0.5 mM PMSF, 2 mM benzamidine, 5 mM DTT, 50 mM zinc acetate, 1 mM sodium azide. Fractions containing BIR protein were pooled and dialyzed against 4 changes of buffer containing 50 mM Tris (pH 8.0), 120 mM NaCl, 5 mM DTT, 0.5 mM PMSF, 2 mM benzamidine, 50 mM zinc acetate, 1 mM sodium azide. Protein was concentrated and stored at −80° C. for further characterization.
(§3) The apparent Kd values were determined from the EC50 values. […] Samples were read after a 10-minute incubation.

XIAP-BIR2 [2] = target: T2, XIAP-BIR2 (Homo sapiens, UniProt P98170, C202A/C213G); assay: fluorescence polarization competition assay, XIAP-BIR2; type: binding
T2 construct: X-IAP BIR2 (amino acid residues 124-240 with mutations C202A and C213G); made in house; host or cells: Escherichia coli BL21 (DE3)
T2 sequence (P98170 124-240 C202A/C213G): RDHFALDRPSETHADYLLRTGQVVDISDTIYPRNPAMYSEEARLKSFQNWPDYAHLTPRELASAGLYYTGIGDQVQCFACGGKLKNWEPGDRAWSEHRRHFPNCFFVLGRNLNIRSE
Method: as §1, §2, §3

ML-IAP-BIR [3] = target: T3, ML-IAP-BIR (Homo sapiens, UniProt Q96CA5); assay: fluorescence polarization competition assay, ML-IAP-BIR; type: binding
T3 construct: made in house; host or cells: Escherichia coli BL21 (DE3)
T3 sequence (Q96CA5 63-179): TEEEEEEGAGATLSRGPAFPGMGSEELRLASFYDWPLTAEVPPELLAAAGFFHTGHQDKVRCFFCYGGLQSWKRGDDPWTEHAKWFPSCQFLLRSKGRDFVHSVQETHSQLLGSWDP
Method: as §1, §2, §3

XIAP-BIR2 [4] = target: T4, XIAP-BIR2 (human, UniProt P98170 124-240); assay: fluorescence polarization competition, SMAC-FAM probe
T4 construct: range 124-240; The text says C213G, the vector name reads pET15b-XIAPBIR2C202AC218G; Expressed in E. coli from pET15b
T4 sequence (P98170 124-240 C202A/C213G limits assumed): as the sequence (P98170 124-240 C202A/C213G) above

ML-IAP-BIR [5] = target: T5, ML-IAP-BIR (human, UniProt Q96CA5 63-179); assay: as above
T5 construct: range 63-179; Expressed in E. coli from pET15b and purified on Ni-agarose; also called BIR domain of ML-IAP
T5 sequence (looked up): T3 sequence (Q96CA5 63-179)

XIAP-BIR3 [6] = target: T6, XIAP-BIR3 (human, UniProt P98170 241-356); assay: as above
T6 construct: range 241-356; Expressed in E. coli from pET15b and purified on Ni-agarose
T6 sequence (P98170 241-356 limits assumed): as the sequence (P98170 241-356) above

XIAP-BIR2 [7] = target: T4, XIAP-BIR2; assay: fluorescence polarization competition, SMAC-FAM or Hid-FAM probe
Source text: (§4) The Kᵢ values for the mutant peptides relative to the Kᵢ of [sequence]

ML-IAP-BIR [8] = target: T5, ML-IAP-BIR; assay: as above
Source text: as §4

ML-IAP-BIR [9] = target: T5, ML-IAP-BIR; assay: fluorescence polarization competition, SMAC-FAM probe; remark: listed apart in the source
XIAP-BIR3 [10] = target: T6, XIAP-BIR3; assay: as above; remark: listed apart in the source
XIAP-BIR3 [11] = target: T6, XIAP-BIR3; assay: fluorescence polarization competition, SMAC-FAM or Hid-FAM probe
Source text: as §4

U87MG glioma cells = settings: athymic mice; Fulda et al. (2002); cited from earlier work
[12] = Table 4, P4 amino acid/phenylethylamine scan, Hid-FAM probe

Ki (XIAP-BIR3 [1]): > 64000 nM
Ki (XIAP-BIR2 [2]): 3600 nM
Molecule: CC(C)[C@H](NC(=O)[C@H](C)NC(=O)[C@H](CCC(=O)O)NC(=O)[C@H](C)N)C(=O)N1CCC[C@H]1C(=O)N[C@@H](Cc1c[nH]c2ccccc12)C(=O)N[C@@H](CCCCN)C(=O)N[C@@H](CO)C(=O)N[C@@H](CCC(=O)O)C(=O)O

Ki (ML-IAP-BIR [3]): 7000 nM
Molecule: CC(C)[C@H](NC(=O)[C@H](C)NC(=O)[C@H](CCC(N)=O)NC(=O)[C@H](C)N)C(=O)N[C@@H](C)C(=O)N[C@@H](Cc1c[nH]c2ccccc12)C(=O)N[C@@H](CCCCN)C(=O)N[C@@H](CO)C(=O)N[C@@H](CCC(=O)O)C(=O)O

Ki (ML-IAP-BIR [3]): 6000 nM
Molecule: CC(C)[C@H](NC(=O)[C@H](C)N)C(=O)NCC(=O)N[C@H](C(=O)N1CCC[C@H]1C(=O)N[C@@H](Cc1c[nH]c2ccccc12)C(=O)N[C@@H](CCCCN)C(=O)N[C@@H](CO)C(=O)N[C@@H](CCC(=O)O)C(=O)O)C(C)C

Ki (ML-IAP-BIR [3]): 330 nM
Molecule: CC[C@H](C)[C@H](NC(=O)[C@H](Cc1c[nH]c2ccccc12)NC(=O)[C@@H]1CCCN1C(=O)[C@@H](NC(=O)[C@H](C)N)C(C)C)C(=O)NCC(=O)N[C@@H](CCCCN)C(=O)N[C@@H](CO)C(=O)N[C@@H](CCC(=O)O)C(=O)O

Ki (ML-IAP-BIR [3]; [12]): 90 nM
Molecule: CC(C)[C@H](NC(=O)[C@H](C)N)C(=O)N1CCC[C@H]1C(=O)N[C@@H](Cc1ccccc1)C(=O)O [AVPF] (H-AVPF-OH; N-terminus assumed)

Ki (ML-IAP-BIR [3]; [12]): 330 nM
Molecule: CC[C@H](C)[C@H](NC(=O)[C@@H]1CCCN1C(=O)[C@@H](NC(=O)[C@H](C)N)C(C)C)C(=O)O [AVPI]

Molecule: CC(C)[C@H](NC(=O)[C@H](C)N)C(=O)N1CCC[C@H]1C(=O)NCC(c1ccccc1)c1ccccc1 [AVPX24]
Ki (ML-IAP-BIR [3]; [12]): 30 nM

Ki (ML-IAP-BIR [3]; [12]): 1500 nM
Molecule: CC(C)[C@H](NC(=O)[C@H](C)N)C(=O)N1CCC[C@H]1C(=O)N[C@@H](CO)[C@@H](O)c1ccccc1 [AVPX25]

Ki (ML-IAP-BIR [3]; [12]): 1900 nM
Molecule: CC(C)[C@H](NC(=O)[C@H](C)N)C(=O)N1CCC[C@H]1C(=O)NCCc1cccc(C(F)(F)F)c1 [AVPX26]

Ki (ML-IAP-BIR [3]; [12]): 410 nM
Molecule: CC(C)[C@H](NC(=O)[C@H](C)N)C(=O)N1CCC[C@H]1C(=O)N[C@H](CO)[C@H](O)c1ccccc1 [AVPX27]

Ki (ML-IAP-BIR [3]; [12]): 850 nM
Ki (XIAP-BIR3 [1]; [12]): 7600 nM
Molecule: CC(C)[C@H](NC(=O)[C@H](C)N)C(=O)N1CCC[C@H]1C(=O)N[C@@H]1C[C@H]1c1ccccc1 [AVPX28a]

Ki (ML-IAP-BIR [3]; [12]): 1000 nM
Ki (XIAP-BIR3 [1]; [12]): 1400 nM
Molecule: CC(C)[C@H](NC(=O)[C@H](C)N)C(=O)N1CCC[C@H]1C(=O)N[C@H]1C[C@@H]1c1ccccc1 [AVPX28b]

Ki (ML-IAP-BIR [3]; [12]): 270 nM
Molecule: CC(CNC(=O)[C@@H]1CCCN1C(=O)[C@@H](NC(=O)[C@H](C)N)C(C)C)c1ccccc1 (stereo partly shown) [AVPX31]

Ki (ML-IAP-BIR [3]; [12]): 90 nM
Ki (XIAP-BIR3 [1]; [12]): 390 nM
Ki (XIAP-BIR2 [2]; [12]): 441000 nM
Molecule: CC(C)[C@H](NC(=O)[C@H](C)N)C(=O)N1CCC[C@H]1C(=O)N[C@H](CO)Cc1ccccc1 [AVPX32] (H-AVP[Phe(ol)]; N-terminus assumed)

Ki (ML-IAP-BIR [3]; [12]): 310 nM
Molecule: CC(C)[C@H](NC(=O)[C@H](C)N)C(=O)N1CCC[C@H]1C(=O)NC[C@H](O)c1ccccc1 [AVPX33]

Ki (ML-IAP-BIR [3]; [12]): 780 nM
Molecule: CCOc1cccc(CCNC(=O)[C@@H]2CCCN2C(=O)[C@@H](NC(=O)[C@H](C)N)C(C)C)c1 [AVPX34]

Ki (ML-IAP-BIR [3]; [12]): 1300 nM
Molecule: COc1ccc(Br)cc1CCNC(=O)[C@@H]1CCCN1C(=O)[C@@H](NC(=O)[C@H](C)N)C(C)C [AVPX36]

Ki (ML-IAP-BIR [3]; [12]): 870 nM
Molecule: CC(C)[C@H](NC(=O)[C@H](C)N)C(=O)N1CCC[C@H]1C(=O)NCCc1cccc(F)c1 [AVPX37]

Ki (ML-IAP-BIR [3]; [12]): 150 nM
Molecule: COC[C@H](Cc1ccccc1)NC(=O)[C@@H]1CCCN1C(=O)[C@@H](NC(=O)[C@H](C)N)C(C)C [AVPX38]

Ki (ML-IAP-BIR [3]; [12]): 680 nM
Molecule: CC(C)[C@H](NC(=O)[C@H](C)N)C(=O)N1CCC[C@H]1C(=O)NCCc1cccc(Cl)c1 [AVPX39]

Ki (ML-IAP-BIR [3]; [12]): 300 nM
Molecule: CCOc1ccccc1CCNC(=O)[C@@H]1CCCN1C(=O)[C@@H](NC(=O)[C@H](C)N)C(C)C [AVPX40]

Ki (ML-IAP-BIR [3]): 9300 nM
Ki (XIAP-BIR3 [1]): > 64000 nM
Ki (XIAP-BIR2 [2]): 2500 nM
Molecule: AEAVAWKSE

Ki (ML-IAP-BIR [3]): 440 nM
Ki (XIAP-BIR3 [1]): 590 nM
Ki (XIAP-BIR2 [2]): 8700 nM
Molecule: AIPFEEKSE

Ki (ML-IAP-BIR [3]): 4300 nM
Ki (XIAP-BIR3 [1]): > 64000 nM
Ki (XIAP-BIR2 [2]): 5700 nM
Molecule: ATAVIEKSE

Ki (ML-IAP-BIR [3]): 420 nM
Ki (XIAP-BIR3 [1]): 540 nM
Ki (XIAP-BIR2 [2]): 6900 nM
Molecule: AVPWGLKSE

Ki (XIAP-BIR2 [4]): 8700 nM
Ki (ML-IAP-BIR [5]): 440 nM
Ki (XIAP-BIR3 [6]): 590 nM
Molecule: AIPFEEKSE

Ki (XIAP-BIR2 [7]): 27700 nM
Ki (ML-IAP-BIR [8]): 450 nM
Molecule: AVP[Phe(4-I)]AQKSE [AVPX10AQKSE]

Ki (ML-IAP-BIR [5]): 6000 nM
Molecule: AVGVPWKSE

Ki (ML-IAP-BIR [5]): 330 nM
Molecule: AVPWIGKSE

fold specificity for ML-IAP-BIR relative to XIAP-BIR3 (ML-IAP-BIR [9]): > 10 fold
fold weaker than the SMAC-based peptide (ML-IAP-BIR [9]): ~10 fold
fold weaker than the SMAC-based peptide (XIAP-BIR3 [10]): > 100 fold
Ki (XIAP-BIR2 [4]): 2500 nM
Ki (ML-IAP-BIR [5]): 9300 nM
Molecule: AEAVAWKSE

Ki (ML-IAP-BIR [5]): 7000 nM
Molecule: AQAVAWKSE

Ki (XIAP-BIR2 [4]): 3600 nM
Molecule: AEAVPWKSE

fold specificity for ML-IAP-BIR relative to XIAP-BIR3 (ML-IAP-BIR [9]): > 10 fold
fold weaker than the SMAC-based peptide (ML-IAP-BIR [9]): ~10 fold
fold weaker than the SMAC-based peptide (XIAP-BIR3 [10]): > 100 fold
Ki (XIAP-BIR2 [4]): 5700 nM
Ki (ML-IAP-BIR [5]): 4300 nM
Molecule: ATAVIEKSE

Ki (XIAP-BIR3 [11]): 8500 nM
Molecule: AVP[Phe(4-SO3H)]AQKSE [AVPX2AQKSE]

Ki (XIAP-BIR2 [7]): 229000 nM
Ki (ML-IAP-BIR [8]): 7900 nM
Molecule: AVPXAQKSE (X7 at position 4 is cyclopentylalanine) [AVPX7AQKSE]

B1: APO2L/TRAIL: pro-apoptotic polypeptide APO2L/TRAIL (Accession Number: TN10_HUMAN) (protein, UniProt P50591 1-281, looked up)
Tumor necrosis factor ligand …: MAMMEVQGGPSLGQTCVLIVIFTVLLQSLCVAVTYVYFTNELKQMQDKYSKSGIACFLKEDDSYWDPNDEESMNSPCWQVKWQLRQLVRKMILRTSEETISTVQEKQQNISPLVRERGPQRVAAHITGTRGRSNTLSSPNSKNEKALGRKINSWESSRSGHSFLSNLHLRNGELVIHEKGFYYIYSQTYFRFQEEIKENTKNDKQMVQYIYKYTSYPDPILLMKSARNSCWSKDAEYGLYSIYQGGIFELKENDRIFVSVTNEHLIDMDHEASFFGAFLVG
effect on established tumor (U87MG glioma cells): reduction in size of the tumor

Ki (XIAP-BIR2 [4]): 6900 nM
Ki (ML-IAP-BIR [5]): 420 nM
Ki (XIAP-BIR3 [6]): 540 nM
Molecule: AVPWGLKSE
